Test results from patent publication US20090136482A1, “DRUG TARGET PROTEIN AND TARGET GENE, AND SCREENING METHOD” (REVERSE PROTEOMICS RESEARCH INSTITUTE CO., LTD., priority 2005, published 2009).
pKd: −log10 of the molar value.

Tests used:
FLJ12514-derived protein = FLJ12514-derived protein (Homo sapiens, UniProt Q9H9A5); assay: Biacore S51 surface plasmon resonance interaction analysis with FLJ12514-derived protein; type: binding; conditions: for interaction with the protein (dose-dependent binding amount, saturation at high doses): FLJ12514-derived protein, Biacore S51
Experimental: (§1) The obtained plasmids were subjected to phenol/chloroform treatment and the inactivation treatment of RNase according to the PROTEIOS (TOYOBO) protocol to give purified expression plasmids.
(§2) The surface of a CM5 sensor chip for S51 (commercially available from Biacore) was converted to NTA using 1 M EDC, 1.33 M NHS, and 16 mg/ml AB-NTA (pH 9.2) to give an NTA sensor chip for S51. […] The immobilization was performed by sequentially injecting 0.5 M NiCl2, 0.4 M EDC, […], a ligand (protein) solution, and 1 M ethanolamine (pH 8.5) into the passage system of Biacore S51. […] For the correction (solvent correction) of the effect of DMSO contained in the compound solutions and the running buffer, the same solutions as the running buffer containing 3.8 to 5.1% DMSO (8 points) were prepared to perform correction based on the measurement results of these solutions.

FLJ14583-derived protein = target: T1, FLJ14583-derived protein (Homo sapiens, UniProt Q12816); assay: Biacore S51 surface plasmon resonance interaction analysis with FLJ14583-derived protein; type: binding
T1 sequence (Q12816 1-1431): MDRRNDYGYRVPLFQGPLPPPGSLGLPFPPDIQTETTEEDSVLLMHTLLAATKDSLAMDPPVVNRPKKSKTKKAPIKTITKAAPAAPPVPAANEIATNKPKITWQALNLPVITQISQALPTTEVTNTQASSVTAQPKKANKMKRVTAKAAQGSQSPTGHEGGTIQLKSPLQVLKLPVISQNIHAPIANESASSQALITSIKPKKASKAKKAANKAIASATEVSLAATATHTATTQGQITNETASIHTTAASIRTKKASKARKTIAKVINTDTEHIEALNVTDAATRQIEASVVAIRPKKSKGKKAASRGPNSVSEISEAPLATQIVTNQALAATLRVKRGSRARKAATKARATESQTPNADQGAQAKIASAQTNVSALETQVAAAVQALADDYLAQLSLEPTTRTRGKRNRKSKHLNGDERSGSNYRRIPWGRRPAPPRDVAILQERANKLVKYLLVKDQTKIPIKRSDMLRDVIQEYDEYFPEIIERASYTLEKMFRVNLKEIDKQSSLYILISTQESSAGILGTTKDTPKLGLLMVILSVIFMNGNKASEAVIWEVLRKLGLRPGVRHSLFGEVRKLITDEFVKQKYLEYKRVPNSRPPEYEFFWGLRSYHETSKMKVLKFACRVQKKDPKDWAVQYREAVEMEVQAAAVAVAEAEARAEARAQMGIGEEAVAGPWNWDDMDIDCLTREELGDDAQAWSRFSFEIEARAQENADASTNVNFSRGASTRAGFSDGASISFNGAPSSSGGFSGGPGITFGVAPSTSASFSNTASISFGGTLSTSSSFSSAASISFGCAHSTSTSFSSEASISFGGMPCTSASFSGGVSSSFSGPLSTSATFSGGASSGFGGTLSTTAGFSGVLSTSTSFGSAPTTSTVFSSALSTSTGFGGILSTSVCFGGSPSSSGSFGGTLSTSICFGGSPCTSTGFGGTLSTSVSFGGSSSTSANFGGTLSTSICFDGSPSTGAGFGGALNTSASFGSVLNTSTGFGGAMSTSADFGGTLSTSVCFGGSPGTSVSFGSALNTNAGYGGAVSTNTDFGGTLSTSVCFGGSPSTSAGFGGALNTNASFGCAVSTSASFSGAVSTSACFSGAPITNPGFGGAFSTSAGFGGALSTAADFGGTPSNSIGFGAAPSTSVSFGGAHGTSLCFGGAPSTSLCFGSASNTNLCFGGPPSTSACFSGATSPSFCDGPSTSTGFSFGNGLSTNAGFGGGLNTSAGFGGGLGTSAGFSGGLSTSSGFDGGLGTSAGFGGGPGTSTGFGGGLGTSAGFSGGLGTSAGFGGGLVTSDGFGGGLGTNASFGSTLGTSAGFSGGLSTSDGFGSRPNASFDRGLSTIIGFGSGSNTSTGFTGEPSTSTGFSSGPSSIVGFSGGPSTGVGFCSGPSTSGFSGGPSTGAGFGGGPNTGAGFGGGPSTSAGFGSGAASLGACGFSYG
Experimental: as §1, §2

FLJ31146-derived protein = target: T2, FLJ31146-derived protein (Homo sapiens, UniProt Q9BSE4); assay: Biacore S51 surface plasmon resonance interaction analysis with FLJ31146-derived protein; type: binding
T2 construct: fused on or other part: N-terminal histidine tag and FLAG tag, with Gateway linker residues
T2 sequence (Q9BSE4 1-406): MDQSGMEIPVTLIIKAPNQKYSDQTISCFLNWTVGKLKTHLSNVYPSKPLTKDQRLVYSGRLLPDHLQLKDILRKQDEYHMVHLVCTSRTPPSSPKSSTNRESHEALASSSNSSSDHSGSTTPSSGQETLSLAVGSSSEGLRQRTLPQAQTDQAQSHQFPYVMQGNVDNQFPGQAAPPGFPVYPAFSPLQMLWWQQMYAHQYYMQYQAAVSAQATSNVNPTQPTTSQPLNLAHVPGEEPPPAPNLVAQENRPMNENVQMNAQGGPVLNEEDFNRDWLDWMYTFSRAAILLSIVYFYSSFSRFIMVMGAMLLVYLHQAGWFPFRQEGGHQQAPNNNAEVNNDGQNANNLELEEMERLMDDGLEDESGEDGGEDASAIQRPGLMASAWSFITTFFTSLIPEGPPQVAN
Experimental: as §1, §2

FLJ12502-derived protein = target: T3, FLJ12502-derived protein (Homo sapiens, UniProt Q7Z3D6); assay: Biacore S51 surface plasmon resonance interaction analysis with FLJ12502-derived protein
T3 sequence (Q7Z3D6 1-616 isoform Q7Z3D6-1): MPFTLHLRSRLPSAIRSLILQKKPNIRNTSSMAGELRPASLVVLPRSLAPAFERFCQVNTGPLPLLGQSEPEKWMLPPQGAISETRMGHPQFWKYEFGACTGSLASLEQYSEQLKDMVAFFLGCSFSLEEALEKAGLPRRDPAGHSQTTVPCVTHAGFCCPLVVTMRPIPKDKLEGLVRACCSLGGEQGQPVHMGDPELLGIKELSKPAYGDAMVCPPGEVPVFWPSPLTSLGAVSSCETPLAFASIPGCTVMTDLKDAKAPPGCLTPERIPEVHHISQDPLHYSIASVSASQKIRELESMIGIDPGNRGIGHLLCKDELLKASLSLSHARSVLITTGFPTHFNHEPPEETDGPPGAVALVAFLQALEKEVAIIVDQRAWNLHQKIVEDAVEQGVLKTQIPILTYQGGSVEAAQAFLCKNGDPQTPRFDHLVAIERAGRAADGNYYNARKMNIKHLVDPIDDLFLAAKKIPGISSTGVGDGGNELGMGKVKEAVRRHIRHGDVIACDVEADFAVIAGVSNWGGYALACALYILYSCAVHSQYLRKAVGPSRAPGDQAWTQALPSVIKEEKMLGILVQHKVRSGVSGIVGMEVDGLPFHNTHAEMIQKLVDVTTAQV

FLJ10368-derived protein = target: T4, FLJ10368-derived protein (Homo sapiens, UniProt Q9NUX5); assay: Biacore S51 surface plasmon resonance interaction analysis with FLJ10368-derived protein; type: binding
T4 construct: fused on or other part: N-terminal histidine tag and FLAG tag, with Gateway linker residues
T4 sequence (Q9NUX5 1-634): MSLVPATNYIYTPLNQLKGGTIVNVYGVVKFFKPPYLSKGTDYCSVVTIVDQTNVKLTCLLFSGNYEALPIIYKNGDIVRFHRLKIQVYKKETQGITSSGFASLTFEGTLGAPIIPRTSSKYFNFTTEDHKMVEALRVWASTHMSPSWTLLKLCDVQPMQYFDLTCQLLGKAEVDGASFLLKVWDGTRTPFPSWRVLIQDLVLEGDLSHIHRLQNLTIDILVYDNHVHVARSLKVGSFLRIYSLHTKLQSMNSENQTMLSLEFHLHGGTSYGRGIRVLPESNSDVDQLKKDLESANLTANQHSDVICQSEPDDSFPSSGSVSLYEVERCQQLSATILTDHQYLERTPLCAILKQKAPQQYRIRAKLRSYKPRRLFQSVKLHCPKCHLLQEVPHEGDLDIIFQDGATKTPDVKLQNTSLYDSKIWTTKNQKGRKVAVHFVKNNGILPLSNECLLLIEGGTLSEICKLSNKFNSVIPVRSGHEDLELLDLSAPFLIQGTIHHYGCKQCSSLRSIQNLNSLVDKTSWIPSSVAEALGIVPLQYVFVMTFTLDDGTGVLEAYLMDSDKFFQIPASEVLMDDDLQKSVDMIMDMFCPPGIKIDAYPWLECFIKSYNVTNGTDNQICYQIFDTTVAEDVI
Experimental: as §1, §2

FLJ12389-derived protein = target: T5, FLJ12389-derived protein (Homo sapiens, UniProt Q86V21); assay: Biacore S51 surface plasmon resonance interaction analysis with FLJ12389-derived protein; type: binding
T5 sequence (Q86V21 1-672): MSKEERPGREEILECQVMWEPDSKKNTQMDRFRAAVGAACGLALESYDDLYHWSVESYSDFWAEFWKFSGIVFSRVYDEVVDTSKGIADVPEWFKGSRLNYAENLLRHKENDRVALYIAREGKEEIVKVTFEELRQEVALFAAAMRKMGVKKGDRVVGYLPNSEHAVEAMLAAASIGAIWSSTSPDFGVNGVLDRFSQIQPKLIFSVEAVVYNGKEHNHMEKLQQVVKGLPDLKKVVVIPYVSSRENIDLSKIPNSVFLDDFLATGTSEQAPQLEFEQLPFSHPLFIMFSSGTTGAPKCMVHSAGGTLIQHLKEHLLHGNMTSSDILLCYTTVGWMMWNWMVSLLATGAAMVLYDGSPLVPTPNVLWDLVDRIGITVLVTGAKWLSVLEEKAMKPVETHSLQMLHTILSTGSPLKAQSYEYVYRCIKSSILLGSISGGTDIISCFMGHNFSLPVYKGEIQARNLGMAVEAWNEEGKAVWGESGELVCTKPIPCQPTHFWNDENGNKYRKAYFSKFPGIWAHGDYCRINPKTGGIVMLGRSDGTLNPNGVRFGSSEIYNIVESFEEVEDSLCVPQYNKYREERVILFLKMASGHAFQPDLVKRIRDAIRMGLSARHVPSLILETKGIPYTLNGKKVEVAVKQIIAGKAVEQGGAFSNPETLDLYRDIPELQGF
Experimental: as §1, §2

Sequence of FLJ12514-derived protein (Q9H9A5 whole entry): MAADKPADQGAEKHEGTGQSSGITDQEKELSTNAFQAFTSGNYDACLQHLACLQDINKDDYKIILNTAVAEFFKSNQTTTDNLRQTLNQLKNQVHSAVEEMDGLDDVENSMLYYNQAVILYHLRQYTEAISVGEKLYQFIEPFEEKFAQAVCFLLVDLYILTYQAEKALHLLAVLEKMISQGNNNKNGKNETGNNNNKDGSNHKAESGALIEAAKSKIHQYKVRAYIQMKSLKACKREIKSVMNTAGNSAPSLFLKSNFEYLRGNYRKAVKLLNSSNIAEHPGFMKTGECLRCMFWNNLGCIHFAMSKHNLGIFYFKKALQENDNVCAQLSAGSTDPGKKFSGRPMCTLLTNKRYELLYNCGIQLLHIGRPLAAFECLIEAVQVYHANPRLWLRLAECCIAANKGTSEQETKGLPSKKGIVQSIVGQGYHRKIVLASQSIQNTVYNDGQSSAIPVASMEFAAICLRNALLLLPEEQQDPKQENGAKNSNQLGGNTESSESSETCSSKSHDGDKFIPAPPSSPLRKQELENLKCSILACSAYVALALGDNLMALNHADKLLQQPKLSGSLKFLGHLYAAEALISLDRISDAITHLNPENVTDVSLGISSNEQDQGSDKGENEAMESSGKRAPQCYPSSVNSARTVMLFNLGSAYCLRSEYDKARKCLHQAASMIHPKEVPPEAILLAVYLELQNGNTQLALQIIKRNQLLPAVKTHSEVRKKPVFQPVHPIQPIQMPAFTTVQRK

SMILES: CC[C@@]1(O)C[C@H](O[C@H]2C[C@H](N(C)C)[C@H](O[C@H]3C[C@H](O)[C@H](O[C@H]4CCC(=O)[C@H](C)O4)[C@H](C)O3)[C@H](C)O2)c2c(cc3c(c2O)C(=O)c2c(O)cccc2C3=O)[C@H]1C(=O)OC [aclarubicin]
- pKd (FLJ12514-derived protein): 5.21
- interaction with the protein (dose-dependent binding amount, saturation at high doses) (FLJ12514-derived protein): specifically interact

SMILES: CC1=C(C(=O)O)N2C(=O)[C@@H](NC(=O)[C@H](N)c3ccccc3)[C@H]2SC1 [cephalexin]
- interaction with the protein (dose-dependent binding amount, saturation at high doses) (FLJ14583-derived protein): specifically interact
- interaction with the protein (dose-dependent binding amount, saturation at high doses) (FLJ31146-derived protein): specifically interact
- pKd (FLJ12502-derived protein): 5.22
- interaction with the protein (dose-dependent binding amount, saturation at high doses) (FLJ12502-derived protein; FLJ12502-derived protein, Biacore S51): specifically interact

SMILES: COC(=O)[C@H]1[C@H]2C[C@@H]3c4[nH]c5cc(OC)ccc5c4CCN3C[C@H]2C[C@@H](OC(=O)c2cc(OC)c(OC)c(OC)c2)[C@@H]1OC [reserpine]
- interaction with the protein (dose-dependent binding amount, saturation at high doses) (FLJ10368-derived protein): specifically interact

SMILES: c1ccc2[nH]c(-c3cscn3)nc2c1 [thiabendazole]
- interaction with the protein (dose-dependent binding amount, saturation at high doses) (FLJ10368-derived protein): specifically interact
- interaction with the protein (dose-dependent binding amount, saturation at high doses) (FLJ12389-derived protein): specifically interact
- interaction with the protein (dose-dependent binding amount, saturation at high doses) (FLJ12514-derived protein): specifically interact
